Assay results as given in patent US20050197331A1, “Novel anti-inflammatory and analgesic heterocyclic amidines that inhibit nitrogen oxide (NO) production” (ROTTAPHARM SPA, priority 2004, published 2005).
pIC50: −log10 of the molar value. Counter-ions that a name gives are not always drawn. Like-named read-outs stand apart in the source and are kept apart here.

Columns and labels:
[1] = system: PGE2; assay: Inhibition of PGE2 formation in rabbit articular chondrocytes stimulated with IL-1β (RIA); format: cell-based
Protocol: (§1) a) The inhibitory activity on the formation of NO measured as NO2^− (nitrite) and PGE2 was studied in vitro on culture media of rabbit articular chondrocytes stimulated with the cytokine IL-1β (1 ng/ml) for 48 hours. For the preparation of the chondrocytes, the method described by Berenbaum et al. [FEBS Letters 340, 51-55 (1994)] was followed. Briefly, fragments of cartilage removed aseptically from the articular heads of rabbit shoulder, hip and knee were finely ground and digested at 37° C. in hyaluronidase, trypsin and collagenase solutions, giving, after filtration through sterile gauze and centrifugation at 600×g and suitable dilution with 10% DMEM-FCS 10%, a concentration per well of about 1×10^5 cells. The cells were maintained under these conditions until confluent (about 15 days), the medium being replaced every 3 days. At this point, the test products dissolved in the medium were added to each sample and, after 20 minutes, 350 μl of IL-1β were added, to give a final concentration of 1 ng/ml. The stimulation lasted 48 hours at 37° C. (incubation in air/7% CO2). A nitrite assay was subsequently performed on the cell supernatant, as described by Green et al. [Anal. Biochem. 126, 131-138 (1982)], and of PGE2 by RIA assay. The results obtained are shown in Table 3, in which is given, for a number of the compounds that are the subject of the invention and that are already illustrated in Table 1, the IC50, i.e. the concentration (micromolar) of antagonist capable of inhibiting the formation of nitrites and PGE2 by 50% relative to the control group, i.e. relative to the cells stimulated with IL-1β but without addition of antagonists.

[2] = system: formation of NO measured as NO2^− (nitrite); assay: Inhibition of NO (nitrite) formation in rabbit articular chondrocytes stimulated with IL-1β; format: cell-based; details: for pIC50: Oryctolagus cuniculus, Chondrocyte
Protocol: as §1

[3] = Oryctolagus cuniculus, Chondrocyte, rabbit articular chondrocytes, IL-1β 1 ng/ml, 48 hours, RIA, read-out: Inhibition % IC50 PGE2
[4] = rabbit articular chondrocytes, IL-1β 1 ng/ml, 48 hours, RIA
[5] = rabbit articular chondrocytes, IL-1β 1 ng/ml, 48 hours, nitrite in supernatant, read-out: Inhibition % IC50 NO
[6] = Oryctolagus cuniculus, Chondrocyte, rabbit articular chondrocytes stimulated with IL-1β, read-out: IC50, formation of PGE2
[7] = rabbit articular chondrocytes stimulated with IL-1β

| pIC50 [1, 3] | melting point [°C] | pIC50 [2, 5] | Molecule | other results |
| --- | --- | --- | --- | --- |
| 4.37 | 187.2 to 188.9 | – | CC(=N)Nc1ccc2sc(-c3ccccn3)nc2c1 [Compound 14, N-[2-(2-pyridyl)benzothiazol-5-yl]acetamidine] | – |
| – | – | – | CC(=N)Nc1ccc2[nH]c(-c3ccccc3F)nc2c1 [Compound 38, N-[2-(2-fluorophenyl)benzimidazol-5-yl]acetamidine hydrobromide] | Inhibition % IC50 PGE2 [1, 4]: IN (IN = <25% inhibitory activity at 30 × 10^−6M) |
| 4.79 | – | – | COc1ccc(S(N)(=O)=O)cc1-c1nc2cc(NC(C)=N)ccc2s1 [Compound 13, N-[2-(5-aminosulfonyl-2-methoxyphenyl)benzothiazol-5-yl]acetamidine hydrochloride] | – |
| – | 164 to 166 | – | CC(=N)Nc1ccc2[nH]c(-c3ccccc3)nc2c1 (as salt: hydrochloride) [Compound 21, N-(2-phenyl-3H-benzimidazol-5-yl)acetamidine hydrochloride] | – |
| 4.50 | – | 3.91 | CCCCCc1nc2ccc(NC(C)=N)cc2[nH]1 [Compound 22, N-(2-pentyl-3H-benzimidazol-5-yl)acetamidine dihydrochloride] | – |
| 6.15 | – | 4.11 | CC(=N)Nc1ccc2[nH]c(-c3ccc(F)cc3)nc2c1 [Compound 19, N-[2-(4-fluorophenyl)benzimidazol-5-yl]acetamidine dihydrochloride] | pIC50 [1, 6]: 6.10 to 6.52; IC50, formation of PGE2 [1, 7]: sub-micromolar; inhibiting the production of NO (in words) [2, 7]: little activity |
| – | 253.1 to 254.7 | – | COc1ccccc1-c1nc2cc(NC(C)=N)ccc2n1C (as salt: hydrochloride) [Compound 43, N-[1-methyl-2-(2-methoxyphenyl)benzimidazol-5-yl]acetamidine dihydrochloride] | – |
| – | – | – | N-[2-phenylbenzothiazol-5-yl]cyclopropylcarboxamidine [Compound 41] | pIC50 ([1]; rabbit articular chondrocytes, IL-1β 1 ng/ml, 48 hours, RIA, read-out: Inhibition % IC50 PGE2): 5.40; Inhibition % IC50 NO ([2]; rabbit articular chondrocytes, IL-1β 1 ng/ml, 48 hours, nitrite in supernatant): IN (IN = <25% inhibitory activity at 30 × 10^−6M) |
| – | 318 to 322 | – | CC(=N)Nc1ccc2[nH]c(-c3ccc[nH]3)nc2c1 (as salt: hydrochloride) [Compound 23, N-[2-(pyrrol-2-yl)-3H-benzimidazol-5-yl]acetamidine dihydrochloride] | – |
| – | 284.3 to 285.4 | – | CC(=N)Nc1ccc2[nH]c(-c3cccc(C(F)(F)F)c3)nc2c1 (as salt: hydrobromid) [Compound 36, N-[2-(3-trifluoromethylphenyl)benzimidazole-5-yl]acetamidine hydrobromide] | – |
| 5.55 | 190.5 to 192.8 | 4.49 | COc1ccccc1-c1nc2cc(NC(C)=N)ccc2[nH]1 [Compound 37] | – |
| – | 162 to 168 | – | CC(=N)Nc1ccc2nc(-c3ccccc3)ncc2c1 (as salt: hydrochloride) [Compound 27, N-(2-phenylquinazolin-6-yl)acetamidine dihydrochloride] | – |
| – | 283.7 to 286.3 | – | CC(=N)Nc1ccc2[nH]c(-c3ccc(F)cc3)nc2c1 (as salt: hydrochloride) [Compound 19, N-[2-(4-fluorophenyl)benzimidazol-5-yl]acetamidine dihydrochloride] | – |
| 5.29 | 176.3 to 177.8 | 4.37 | CC(=N)Nc1ccc2nc(-c3ccccc3)oc2c1 [Compound 42, N-(2-phenylbenzoxazol-6-yl)acetamidine] | – |
| – | 205.6 to 207.1 | – | COc1ccccc1-c1[nH]c2ccc(NC(C)=N)cc2[n+]1C [Compound 44, N-[1-methyl-2-(2-methoxyphenyl)benzimidazol-6-yl]acetamidine] | – |
| 5.89 | 90.8 to 91.8 | 4.05 | CC(=N)Nc1ccc2sc(/C=C/c3ccccc3)nc2c1 [Compound 12, N-[2-styrylbenzothiazol-5-yl]acetamidine] | IC50, formation of PGE2 [1, 7]: sub-micromolar; inhibiting the production of NO (in words) [2, 7]: little activity |

| pIC50 [1, 3] | melting point [°C] | pIC50 [2, 5] | Molecule | other results |
| --- | --- | --- | --- | --- |
| 5.13 | 117.9 to 120 | 4.82 | CC(=N)Nc1ccc2sc(Cc3ccccc3)nc2c1 [Compound 11, N-[2-benzylbenzothiazol-5-yl]acetamidine] | – |
| – | – | 3.76 | COC(=O)c1ccc(-c2nc3cc(NC(C)=N)ccc3[nH]2)cc1 [Compound 25, Methyl 4-(5-acetimidoylamino-1H-benzimidazol-2-yl)benzoate hydrochloride] | Inhibition % IC50 PGE2 [1, 4]: IN (IN = <25% inhibitory activity at 30 × 10^−6M) |
| 5.18 | 112.6 to 114.7 | 5.16 | CCCCCc1nc2ccc(NC(C)=N)cc2s1 [Compound 4, N-(2-pentylbenzothiazol-6-yl)acetamidine] | pIC50 ([2]; rabbit articular chondrocytes stimulated with IL-1β, read-out: IC50, production of NO): 5.10 to 5.52 |
| – | 244 to 248 | – | COc1ccc(S(N)(=O)=O)cc1-c1nc2cc(NC(C)=N)ccc2s1 (as salt: hydrochloride) [Compound 13, N-[2-(5-aminosulfonyl-2-methoxyphenyl)benzothiazol-5-yl]acetamidine hydrochloride] | – |
| 5.70 | – | 3.60 | CC(=N)Nc1ccc2[nH]c(-c3ccc[nH]3)nc2c1 [Compound 23, N-[2-(pyrrol-2-yl)-3H-benzimidazol-5-yl]acetamidine dihydrochloride] | – |
| 6.40 | 153.6 to 156 | 4.64 | CC(=N)Nc1ccc2[nH]c(-c3ccc(Cl)cc3)nc2c1 [Compound 20, N-[2-(4-chlorophenyl)benzimidazol-5-yl]acetamidine] | pIC50 [1, 6]: 6.10 to 6.52; IC50, formation of PGE2 [1, 7]: sub-micromolar; inhibiting the production of NO (in words) [2, 7]: little activity |
| – | – | – | CC(=N)Nc1ccc2[nH]c(-c3cccc(C(F)(F)F)c3)nc2c1 [Compound 36, N-[2-(3-trifluoromethylphenyl)benzimidazole-5-yl]acetamidine hydrobromide] | Inhibition % IC50 PGE2 [1, 4]: IN (IN = <25% inhibitory activity at 30 × 10^−6M) |
| – | 284 to 288 | – | COC(=O)c1ccc(-c2nc3cc(NC(C)=N)ccc3[nH]2)cc1 (as salt: hydrochloride) [Compound 25, Methyl 4-(5-acetimidoylamino-1H-benzimidazol-2-yl)benzoate hydrochloride] | – |
| – | 197 to 199 | – | Br.CC(=N)Nc1ccc2nc(-c3ccc[nH]3)[nH]c2c1 [Compound 24, N-[2-(pyrrol-2-yl)-3H-benzimidazol-5-yl]acetamidine hydrobromide] | – |
| 6.10 | – | 4.07 | CC(=N)Nc1ccc2[nH]c(-c3ccccc3)nc2c1 [Compound 21, N-(2-phenyl-3H-benzimidazol-5-yl)acetamidine hydrochloride] | pIC50 [1, 6]: 6.10 to 6.52; IC50, formation of PGE2 [1, 7]: sub-micromolar; inhibiting the production of NO (in words) [2, 7]: little activity |
| – | 271.5 to 274.3 | – | CC(=N)Nc1ccc2[nH]c(-c3ccc(C(=O)O)cc3)nc2c1 [Compound 26, 4-(5-acetimidoylamino-1H-benzimidazol-2-yl)benzoic acid] | Inhibition % IC50 PGE2 [1, 4]: IN (IN = <25% inhibitory activity at 30 × 10^−6M) |
| 6.40 | 207.4 to 209 | – | CC(=N)Nc1ccc2[nH]c(-c3ccc(Cl)c(Cl)c3)nc2c1 [Compound 35, N-[2-(3,4-dichlorophenyl)benzimidazol-5-yl]acetamidine] | pIC50 [1, 6]: 6.10 to 6.52; IC50, formation of PGE2 [1, 7]: sub-micromolar; inhibiting the production of NO (in words) [2, 7]: little activity |
| 5.54 | 157.9 to 159.2 | 4.95 | CC(=N)Nc1ccc2oc(-c3cccc(C(F)(F)F)c3)nc2c1 [Compound 31, N-[2-(3-trifluromethylphenyl)benzoxazol-5-yl]acetamidine] | – |
| – | 266.8 to 269 | – | CC(=N)Nc1ccc2[nH]c(-c3ccccc3F)nc2c1 (as salt: hydrobromid) [Compound 38, N-[2-(2-fluorophenyl)benzimidazol-5-yl]acetamidine hydrobromide] | – |
| 5.08 | 166.7 to 169.1 | – | CC(=N)Nc1ccc2sc(-c3ccc[nH]3)nc2c1 [Compound 40, N-[2-(pyrrol-2-yl)benzothiazol-5-yl]acetamidine] | – |
| – | 276.9 to 278.3 | – | CCCCCc1nc2ccc(NC(C)=N)cc2[nH]1 (as salt: hydrochloride) [Compound 22, N-(2-pentyl-3H-benzimidazol-5-yl)acetamidine dihydrochloride] | – |
